Reference: patent US20090318492A1, “INDOLE COMPOUNDS HAVING C4-ACIDIC SUBSTITUENTS AND USE THEREOF AS PHOSPHOLIPASE-A2 INHIBITORS” (priority 2005, published 2009)
Read-outs that look alike come from different tables or passages of the source.

What was measured:
human PLA2 IB enzyme = human PLA2 IB enzyme (Homo sapiens, UniProt P04054); details: versus the human PLA2 IB enzyme; Singer, Ghomashchi et al. 2002; cited from earlier work
[1] = Example 6C pharmokinetic study of ILY-4001 (IV and oral); format: in vivo, mice; details: 30 mg/kg oral
Source text: This example characterized ILY-4001 [2-(3-(2-amino-2-oxoacetyl)-1-(biphenyl-2-ylmethyl)-2-methyl-1H-indol-4-yloxy)acetic acid], alternatively referred to herein as methyl indoxam, with respect to activity, as determined by IC50 assay (Example 6A), with respect to cell absorbtion, as determined by in-vitro Caco-2 assay (Example 6B) and with respect to bioavailability, as determined using in-vivo mice studies (Example 6C).
This example evaluated the bioavailability of ILY-4001 [2-(3-(2-amino-2-oxoacetyl)-1-(biphenyl-2-ylmethyl)-2-methyl-1H-indol-4-yloxy)acetic acid], alternatively referred to herein as methyl indoxam. […]
Bioavailability was calculated as a ratio of AUC-oral/AUC-intravenous (IV). To determine this ratio, a first set of subject animals were given a measured intravenous (IV) dose of ILY-4001, followed by a determination of ILY-4001 levels in the blood at various time points after administration (e.g., 5 minutes through 24 hours). Another second set of animals was similarly dosed using oral administration, with blood levels of ILY-4001 determined at various time points after administration (e.g., 30 minutes through 24 hours). The level of ILY-4001 in system to circulation were determined by generally accepted methods (for example as described in Evans, G., A Handbook of Bioanalysis and Drug Metabolism. Boca Raton, CRC Press (2004)). […]

[2] = predicted to survive passage through the stomach; cited from earlier work
Caco-2 cells = experiment: Example 6B Caco-2 permeability study; format: in vitro ADME, human
Description: The culture medium was refreshed every 48 hours.
Papp=(dQ/dt)×(1/C0)×(1/A)

[3] = system: C57BL/6 (wt) mice on high fat/high sucrose diabetogenic diet; experiment: Example 5 in-vivo evaluation in mice on high fat/high sucrose diabetogenic diet; set-up: species or system mouse; details: for body weight gain compared to wild-type control group: week 4 and week 10; for plasma levels of cholesterol / plasma levels of triglycerides: 10 weeks
Description: ILY-4001 (FIG. 2) was evaluated as a PLA2 IB inhibitor in a set of experiments using wild-type mice and genetically deficient PLA2 (−/−) mice (also referred to herein as PLA2 knock-out (KO) mice). In these experiments, wild-type and PLA2 (−/−) mice were maintained on a high fat/high sucrose diet, details of which are described below.
Briefly, four groups were set up, each having six mice. Three of the groups included six wild-type PLA2 (+/+) mice in each group (eighteen mice total), and one of the groups included six genetically deficient PLA2 (−/−) mice. One of the wild-type groups was used as a wild-type control group, and was not treated with ILY-4001. The other two wild-type groups were treated with ILY-4001-one group at a lower dose (indicated as “L” in Table 1) of 25 mg/kg/day, and the other at a higher dose (indicated as “H” in Table 1) of 90 mg/kg/day. The group comprising the PLA2 (−/−) mice was used as a positive control group.
The experimental protocol used in this study was as follows. The four groups of mice, including wild type and isogenic PLA2 (−/−) C57BL/J mice were acclimated for three days on a low fat/low carbohydrate diet. After the three day acclimation phase, the animals were fasted overnight and serum samples taken to establish baseline plasma cholesterol, triglyceride, and glucose levels, along with baseline body weight. The mice in each of the treatment groups were then fed a high fat/high sucrose diabetogenic diet (Research Diets D12331). 1000 g of the high fat/high sucrose D12331 diet was composed of casein (228 g), DL-methionine (2 g), maltodextrin 10 (170 g), sucrose (175 g), soybean oil (25 g), hydrogenated coconut oil (333.5 g), mineral mix S10001 (40 g), sodium bicarbonate (10.5 g), potassium citrate (4 g), vitamin mix V10001 (10 g), and choline bitartrate (2 g). This diet was supplemented with ILY-4001 treatments such that the average daily dose of the compound ingested by a 25 g mouse was: 0 mg/kg/day (wild-type control group and PLA2 (−/−) control group); 25 mg/kg/day (low-dose wild-type treatment group), or 90 mg/kg/day (high-dose wild-type treatment group). The animals were maintained on the high fat/high sucrose diet, with the designated ILY-4001 supplementation, for a period of ten weeks.
Body weight measurements were taken for all animals in all treatment and control groups at the beginning of the treatment period and at 4 weeks and 10 weeks after initiation of the study. (See Example 5A). Blood draws were also taken at the beginning of the treatment period (baseline) and at 4 weeks and 10 weeks after initiation of the study, in order to determine fasting glucose (See Example 5B). Cholesterol and triglyceride levels were determined from blood draws taken at the beginning of the treatment (baseline) and at ten weeks. (See Example 5C).

mouse PLA2 IB enzyme = mouse PLA2 IB enzyme (Mus musculus, UniProt Q9Z0Y2); details: versus the mouse PLA2 IB enzyme; Singer, Ghomashchi et al. 2002; cited from earlier work
[4] = molecular target: T1, mouse group 1B PLA2 (mps PLA2) (Mus musculus, UniProt Q9Z0Y2); experiment: Example 8 fluorimetric PLA2 inhibition assay (PPyrPM), mouse enzyme; format: biochemical
T1 construct: made in house; host or cells: E. coli
Source text: (§1) In this example, a fluorimetric assay procedure was used to evaluate the indole and indole-related compounds of the invention as inhibitors of group 1B phospholipase A2 (PLA2) from human, mouse and porcine. A description of this assay is found in articles: Leslie, C C and Gelb, M H (2004) Methods in Molecular Biology “Assaying phospholipase A2 activity”, 284:229-242; Singer, A G, et al. (2002) Journal of Biological Chemistry “Interfacial kinetic and binding properties of the complete set of human and mouse groups I, II, V, X, and XII secreted phospholipases A2”, 277:48535-48549, which are incorporated herein as references.
(§2) In general, this assay used a phosphatidylmethanol substrate with a pyrene fluorophore on the terminal end of the sn-2 fatty acyl chain. Without being bound by theory, close proximity of the pyrenes from neighboring phospholipids in a phospholipid vesicle caused the spectral properties to change relative to that of monomeric pyrene. Bovine serum albumin was present in the aqueous phase and captured the pyrene fatty acid when it is liberated from the glycerol backbone owing to the PLA2-catalyzed reaction. However, a potent inhibitor can inhibit the liberation of pyrene fatty acid from the glycerol backbone. […] The effect of a given inhibitor and inhibitor concentration on human, mouse and porcine phospholipase was determined.
Recombinant human and mouse group 1B PLA2 were cloned and expressed in E. coli as insoluble inclusion bodies. The inclusion bodies were isolated and purified by sonicating cell pellet in lysis buffer (50 mM Tris-HCl pH 7.0, 250 mM NaCl, 0.5% Triton 100), centrifugation at 12,000×g, and washing three times in washing buffer (20 mM Tris-HCl pH 7.0, 250 mM NaCl, 0.5% Triton 100). […]
(§3) The following procedure was performed to evaluate the inhibitory potency of the evaluated compounds. • 1. […]

[5] = molecular target: T2, Porcine group 1B phospholipase A2 (pps PLA2) (Sus scrofa, UniProt P00592); experiment: Example 8 fluorimetric PLA2 inhibition assay (PPyrPM), porcine enzyme; format: biochemical; details: read-out: ILYPSA IC50 pps PLA2
T2 construct: purchased
Source text: as §1
In general, this assay used a phosphatidylmethanol substrate with a pyrene fluorophore on the terminal end of the sn-2 fatty acyl chain. […] The effect of a given inhibitor and inhibitor concentration on human, mouse and porcine phospholipase was determined. […]
The following procedure was performed to evaluate the inhibitory potency of the evaluated compounds. • 1. […] The fluorescence was read using an excitation of 342 nm and an emission of 395 nm.
Evaluated compounds were tested in duplicate and their values were averaged to plot the inhibition curve and calculate the IC50. […] The IC50 was calculated using the BioDataFit 1.02 (Four Parameter Model) software package. […]

[6] = molecular target: T3, human group 1B PLA2 (hps PLA2) (Homo sapiens, UniProt P04054); experiment: Example 8 fluorimetric PLA2 inhibition assay (PPyrPM), human enzyme; format: biochemical; details: read-out: ILYPSA IC50 hps PLA2
T3 construct: made in house; host or cells: E. coli
Source text: as §1
as §2, with “reaction.” for “reaction. However, a potent inhibitor can inhibit the liberation of pyrene fatty acid from the glycerol backbone.”, “determined. […]” for “determined.”
as §3

T1 sequence (Q9Z0Y2 23-146): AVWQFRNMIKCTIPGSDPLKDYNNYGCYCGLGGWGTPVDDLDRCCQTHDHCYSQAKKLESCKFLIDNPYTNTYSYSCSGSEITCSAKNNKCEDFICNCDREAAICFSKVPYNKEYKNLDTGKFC
T3 sequence (P04054 23-148): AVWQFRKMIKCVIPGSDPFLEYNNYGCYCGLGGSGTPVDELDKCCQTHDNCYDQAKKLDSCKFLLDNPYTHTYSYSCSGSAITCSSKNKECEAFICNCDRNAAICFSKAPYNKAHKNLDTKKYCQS
Sequence of human PLA2 IB enzyme (P04054 23-148): as above
T2 sequence (P00592 23-146): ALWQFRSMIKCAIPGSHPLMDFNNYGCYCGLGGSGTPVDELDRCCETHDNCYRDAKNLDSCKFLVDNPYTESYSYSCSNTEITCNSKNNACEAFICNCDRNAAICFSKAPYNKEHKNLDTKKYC
Sequence of mouse PLA2 IB enzyme (Q9Z0Y2 23-146): as the sequence (Q9Z0Y2 23-146) above

In the case of Cc1c(C(=O)C(N)=O)c2c(OCC(=O)O)cccc2n1Cc1ccccc1-c1ccccc1 [ILY-4001, 2-(3-(2-amino-2-oxoacetyl)-1-(biphenyl-2-ylmethyl)-2-methyl-1H-indol-4-yloxy)acetic acid], the IC50 (human PLA2 IB enzyme) is given as ~200 nM, the “level of non-absorption from the GI tract into systemic circulation” value [1] is given as ~72% and the “stability at low pH” value [2] is given as “stable at low pH”. For the same compound, the “absorbtion from the GI lumen” value (Caco-2 cells; based on Caco-2 assays and pharmokinetic studies) was “relatively low absorbtion”, the “body weight gain compared to wild-type control group” value ([3]; 25 mg/kg/d in diet) was “significantly reduced body weight gains” and the “body weight gain compared to wild-type control group” value ([3]; 90 mg/kg/d in diet) was “significantly reduced body weight gains”. For the same compound, the “plasma levels of cholesterol” value ([3]; high dose (90 mg/kg/day)) was “substantially reduced”, the “plasma levels of triglycerides” value ([3]; high dose (90 mg/kg/day)) was “substantially reduced” and the “plasma levels of cholesterol” value ([3]; low dose (25 mg/kg/day)) was “substantially reduced”. For the same compound, the “plasma levels of triglycerides” value ([3]; low dose (25 mg/kg/day)) was “substantially reduced”, the fasting glucose levels ([3]; low dose (25 mg/kg/day), week four) was “moderately beneficial effect” and the fasting glucose levels ([3]; low dose (25 mg/kg/day), week ten) was “beneficial effect was not observed”. For the same compound, the IC50 (mouse PLA2 IB enzyme) was ~150 nM.
In the case of Lucifer Yellow, the apparent permeability (Caco-2 cells; 10 uM in apical wells, paracellular transport control) is reported as “around 2.82×10^−7+/−0.37×10^−7 cm/s”.
Cc1c(C(=O)C(N)=O)c2c(OC(C(=O)O)C(C)C)cccc2n1CCCCCCCCCCCCOc1ccccc1OCCCCCCCCCCCCn1c(C)c(C(=O)C(N)=O)c2c(OC(C(=O)O)C(C)C)cccc21 (stereo not drawn) [ILY-V-33, 2-{3-Aminooxalyl-1-[12-(2-{12-[3-aminooxalyl-4-(1-carboxy-2-methyl-propoxy)-2-methyl-indol-1-yl]-dodecyloxy}-phenoxy)-dodecyl]-2-methyl-1H-indol-4-yloxy}-3-methyl-butyric acid] showed an IC50 [4] of 300 nM.
“2-(3-Aminooxalyl-1-{12-[3-aminooxalyl-4-(1-carboxy-2-methyl-propoxy)-2-methyl-indol-1-yl]-dodecyl}-2-methyl-1H-indol-4-yloxy)-3-methyl-butyric acid [ILY-V-44]” gave an IC50 [5] of 50 nM, an IC50 [6] of 280 nM and an IC50 ([4]; read-out: ILYPSA IC50 mps PLA2) of 480 nM.
